Measurements reported in patent US9957498B2, “Photoremovable protecting groups and uses thereof” (Iowa State University Research Foundation, Inc., priority 2015, dated 2018).

Tests used:
[1] = test system: GM07373 cells; test: Trypan blue exclusion cytotoxicity assay, GM07373; type: cell-based, bovine; conditions: 20 μM, one hour incubation, ± standard deviation from two measurements
Description: (§1) Live cell experiments were performed with HeLa (human), GM07373 (bovine) or S2 (Drosophila) cells. HeLa and GM07373 cells were cultured in DMEM medium supplemented with 10% fetal bovine serum, […] (Fisher Scientific, Pittsburgh, Pa.) in a 37° C. water jacketed CO2 incubator (Thermo Scientific, Waltham, Mass.). HeLa and GM07373 cells were sub-cultured using 0.25% (w/v) trypsin-EDTA (Life Technology, Carlsbad, Calif.) solution every two days. Cells were sub-cultured onto custom-made glass bottom culture dishes two days before the microscopy experiment. On the day of the microscopy experiment, the growth media was replaced with 20 μM compound 12b in serum-free DMEM for one hour. Cells were rinsed with the imaging medium (pH=7.2, 155 mM NaCl, 5 mM KCl, 2 mM CaCl2, 1 mM MgCl2, 2 mM NaH2PO4, 10 mM HEPES and 10 mM Glucose) prior to collecting microscopy images. […]
(§2) HeLa, GM07373 or S2 cells were incubated with 20 μM of the compound 12b for an hour. Cytotoxicity of the compound was measured using trypan blue exclusion assays. […] The number of viable cells that excluded the dye was counted using a hemacytometer (Hausser Bright-Line, Hausser scientific, Horsham, Pa.) and an optical microscope.

[2] = test system: S2 cells; test: Trypan blue exclusion cytotoxicity assay, S2; type: cell-based, Drosophila; conditions: 20 μM, one hour incubation, ± standard deviation from two measurements
Description: as §1, §2

[3] = test system: HeLa cells; test: Trypan blue exclusion cytotoxicity assay, HeLa; type: cell-based, human; conditions: 20 μM, one hour incubation, ± standard deviation from two measurements
Description: as §1, §2

[4] = UV-Vis spectroscopy: absorption maximum and extinction coefficient; type: physicochemical
Description: (§3) The observed substrate release rate as a function of photolysis time is quantified by the quantum efficiency parameter (ϵΦ), which is the product of the extinction coefficient at the irradiation wavelength (ϵ) and the quantum yield (Φ). Extinction coefficients for compounds 1-6 were determined by UV-Vis spectroscopy (see Table 1).

[5] = Fluorescence emission of compound solutions; type: physicochemical
Description: FIG. 2 is a plot of normalized fluorescence as a function of wavelength for compounds 1-6 described herein.
See, e.g., Petr Klán et al., Chem. Rev. 113: 119-191 (2013), which is incorporated by reference as if fully set forth herein. Even thought the quantum yields for compounds 1-4 are lower than those for some o-nitrobenzyl photocaged structures, this lower quantum yield is compensated by the much higher extinction coefficients of the BODIPY chromophores compared to the o-nitrobenzyl chromophore, leading to reasonable quantum efficiencies. […] While not being bound by any particular theory, it is plausible that the higher quantum yield of compound 6 occurs because the iodine atoms promote intersystem crossing to a triplet state, which are usually longer lived than […]. Given that the triplet state of the corresponding carbocation is the computed ground state by ˜5 kcal/mol, it is certainly energetically reasonable that heterolysis could occur in the triplet excited state leading to the triplet “carbocation,” similar to the phenacyl photocage derivatives described by Givens et al., Can. J. Chem. 89: 364-384 (2011), which is incorporated by reference as if fully set forth herein.

[6] = Quantum yield of photorelease of acetic acid (ferrioxalate actinometry, 532 nm laser, LC-UV); type: physicochemical; conditions: for Φ (quantum yield of acetic acid release): MeOH, 532 nm ND:YAG laser, LC-UV
Description: as §3
To compute the quantum yields of photorelease (Φ), the flux of a 532 nm laser excitation beam (ND:YAG, 1st harmonic) was determined using potassium ferrioxalate actinometry. Release of acetic acid as a function of laser irradiation time in methanol was followed by quantitative LC/UV methods known in the art. Each quantum yield reported is the average of 3 separate runs. […] Additionally, repeating the quantum yield measurement for compound 2 on a different day with a different laser power setting (in triplicate) gave an identical value for the quantum yield, indicating reproducibility.
All quantum yields were carried out using a liquid-phase potassium ferrioxalate actinometer. The actinometer was prepared by mixing three volumes of 1.5 M K2C2O4 solution with one volume of 1.5 M FeCl3 solution in water, and stirring in complete darkness. The precipitated K3Fe(C2O4)3.3H2O was then recrystallized three times from hot water and dried in a current of warm air. To prepare 1 L of 0.15M K3Fe(C2O4)3.3H2O solution, 73.68 g of the precipitate was dissolved in 800 mL water; 100 mL 1.0 N sulfuric acid was added and filled to the mark with water, again in complete darkness. For all quantitative work the preparation and manipulation of the ferrioxalate solutions must be carried out in a darkroom, using a red light. The light intensity in a photochemical reaction is determined by irradiating ferrioxalate solution and monitoring the subsequent change in absorbance at 510 nm. Irradiation was conducted using 532 nm excitation from a ND:YAG laser source (1st harmonic). Autopipettes were used to ensure all volumes were accurately measured.
For each actinometric measurement a methacrylate cuvette was filled with 3 mL of 0.15 M ferrioxalate solution. The cell was placed in the sample holder, stirred and irradiated for a set period of time (0, 0.25, 0.50, 0.75, 1, 2, 3 minutes). After the allocated irradiation time the solution was transferred into a 25 mL volumetric flask, to which was added in sequence 6 mL of a developer solution (0.05 mol % phenanthroline/0.75 M acetate/0.2 M sulfuric acid), 5 mL 1 M sodium fluoride solution in water. The sample was diluted to 25 mL with water, mixed and allowed to incubate for 10 minutes. After the incubation period was complete, 3 mL of sample was transferred into 1 cm methacrylate cuvette and the absorbance (at 510 nm) read using a spectrophotometer.
Using iron sulfate standard solutions between 1.6×10^−5 M to 9.6×10^−5 M, a standard curve based on absorbance of the ferrioxalate/phenanthroline complex at 510 nm was compiled and the irradiated samples absorbances were compared to yield the concentration iron (II) cleaved via photolysis within the timescale of experiment.
The flux of the laser was calculated the following equations:
[formula] where I is the flux (Einstein/L/s), Δn is the Fe^2+ photogenerated (mole), φ is the quantum yield at 532 nm, V1 is the irradiated volume (mL), and t=irradiation time (seconds);
[formula] where V2 is the volume taken from the irradiated sample (mL), V3 is the volume after dilution for concentration determination (mL), and CT is the concentration of Fe^2+ after dilution (M); and
[formula] where abs is the absorbance at 510 nm, ϵ is the molar absorptivity (M^−1 cm^−1) and l is the path length.
Due to the low absorbance of the potassium ferrioxalate solution at 532 nm, a correction was made to account for an absorbance less than 2 (multiplied the flux by 0.0967).
For each compound, a solution of 1000 ppm was prepared using 1 mg of sample and dissolving in 1 mL methanol. […]

**Q.** What does the source list for “3,5-Bis(4-(1,4,7,10-tetraoxaundecyl)styryl-1,7-dimethyl-8-(4-nitrobenzoato)pyrromethene fluoroborate [Compound 12b]”?
**A.** % of Viable cells [1]: 92 ± 5%; % of Viable cells [2]: 93 ± 2%; % of Viable cells [3]: 92 ± 5%

**Q.** What does the source list for “8-Acetoxymethyl-1,3,5,7-tetramethyl pyrromethene fluoroborate [Compound 2]”?
**A.** λmax ([4]; Table 1): 515 nm; ε ([4]; Table 1, extinction coefficient by UV-Vis spectroscopy): 71000 M⁻¹ cm⁻¹; ε ([4]; Table 2): 71000 M⁻¹ cm⁻¹; λmax ([4]; Table 2): 515 nm; λem ([5]; Table 1): 526 nm; λem ([5]; Table 2): 526 nm; Φ (quantum yield of photorelease) ([6]; Table 1, acetic acid release, 532 nm laser, methanol, average of 3 runs): 9.9 ×10^−4; εΦ (quantum efficiency) ([6]; Table 1, product of extinction coefficient and quantum yield): 70 M⁻¹ cm⁻¹; εΦ (quantum efficiency) ([6]; Table 2): 70 M⁻¹ cm⁻¹; Φ (quantum yield of acetic acid release) ([6]; Table 2, average of 3 runs): 9.9 ×10^−4

**Q.** What does the source list for `COc1ccc(/C=C/c2cc(C)c3n2[B-](F)(F)[N+]2=C(C)C=C(C)C2=C3COC(C)=O)cc1` [Compound 7, 8-Acetoxymethyl-3-(4-methoxy)styryl-1,5,7-trimethyl pyrromethene fluoroborate]?
**A.** ε ([4]; Table 2): 61000 M⁻¹ cm⁻¹; λmax ([4]; Table 2): 586 nm; λem ([5]; Table 2): 607 nm; εΦ (quantum efficiency) ([6]; Table 2): 6.0 M⁻¹ cm⁻¹; Φ (quantum yield of acetic acid release) ([6]; Table 2, average of 3 runs): 9.8 ×10^−4

**Q.** What does the source list for `CC(=O)OCC1=C2C(C)=CC(C)=[N+]2[B-](F)(F)n2c(C=Cc3ccc(N(C)C)cc3)cc(C)c21` [Compound 8, 8-Acetoxymethyl-3-(4-dimethylamino)styryl-1,5,7-trimethyl pyrromethene fluoroborate]?
**A.** ε ([4]; Table 2): 60000 M⁻¹ cm⁻¹; λmax ([4]; Table 2): 633 nm; λem ([5]; Table 2): 650 nm; εΦ (quantum efficiency) ([6]; Table 2): 4.1 M⁻¹ cm⁻¹; Φ (quantum yield of acetic acid release) ([6]; Table 2, average of 3 runs): 6.9 ×10^−4

**Q.** For `CC(=O)OCC1=C2C(C)=CC(C=Cc3ccccc3)=[N+]2[B-](F)(F)n2c(C=Cc3ccccc3)cc(C)c21` [Compound 9, 8-Acetoxymethyl-3,5-bisstyryl-1,7-dimethyl pyrromethene fluoroborate], which ε ([4]; Table 2) is on record?
**A.** 65000 M⁻¹ cm⁻¹

**Q.** What about the λmax ([4]; Table 2) of the same molecule?
**A.** 640 nm

**Q.** What about the λem ([5]; Table 2) of the same molecule?
**A.** 656 nm

**Q.** And the “εΦ (quantum efficiency)” value ([6]; Table 2)?
**A.** 2.9 M⁻¹ cm⁻¹

**Q.** And the “Φ (quantum yield of acetic acid release)” value ([6]; Table 2, average of 3 runs)?
**A.** 4.5 ×10^−4

**Q.** Which results are given for `COc1ccc(/C=C/C2=[N+]3C(=C(COC(C)=O)c4c(C)cc(/C=C/c5ccc(OC)cc5)n4[B-]3(F)F)C(C)=C2)cc1` [Compound 10a, 8-Acetoxymethyl-3,5-bis(4-methoxy)styryl-1,7-dimethyl pyrromethene fluoroborate]?
**A.** ε ([4]; Table 2): 65000 M⁻¹ cm⁻¹; λmax ([4]; Table 2): 661 nm; λem ([5]; Table 2): 684 nm; εΦ (quantum efficiency) ([6]; Table 2): 2.7 M⁻¹ cm⁻¹; Φ (quantum yield of acetic acid release) ([6]; Table 2, average of 3 runs): 4.1 ×10^−4

**Q.** With `COCCOCCOCCOc1ccc(C=CC2=[N+]3C(=C(CO)c4c(C)cc(C=Cc5ccc(OCCOCCOCCOC)cc5)n4[B-]3(F)F)C(C)=C2)cc1` [Compound 11b, 3,5-Bis(4-(1,4,7,10-tetraoxaundecyl)styryl-1,7-dimethyl-8-hydroxymethylpyrromethene fluoroborate] as the molecule, how does the ε ([4]; Table 2) read?
**A.** 120000 M⁻¹ cm⁻¹

**Q.** And the λmax ([4]; Table 2)?
**A.** 667 nm
